Experimental findings from patent US9187472B2 (AbbVie Inc., priority 2012, dated 2015) are described below.

Molecules are shown by their SMILES.

The subject of one test is PC3 cells. As to the kind of experiment: NAMPT Cell Proliferation Assay. The test is classed as cell-based. The settings on record: Homo sapiens, PC-3, 120 h, 5 days incubation, cell viability by Cell Titer Glo. The method, boiled down:
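Seed PC3 at 500 cells/well (RPMI, 10% HI-FBS), attach overnight; add compound, 10-fold series 10 μM → 1×10^−5 μM; incubate 5 d, 37° C/5% CO2; luminescent viability readout; fit % inhibition sigmoidally for IC50.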

Test [1] addresses NAMPT (human, recombinant, C-terminally His-tagged) (Homo sapiens, UniProt P43490). As to the kind of experiment: Time-Resolved Fluorescence Resonance Energy Transfer (TR-FRET) Binding Assay of NAMPT. The settings on record: without substrates; 6.8 nM NAMPT, 200 nM probe, 3 hours equilibration. In outline: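 Read-out is the time-resolved FRET ratio Em520/Em495 (excitation 337 nm) between a terbium anti-His antibody (1 nM) on the enzyme and an Oregon Green 488-labelled nicotinamide-competitive inhibitor probe (200 nM). Enzyme was 6.8 nM, DMSO 2%, pH 7.5 HEPES buffer; 3 h room-temperature equilibration preceded reading.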
In general terms: In TR-FRET formats the signal depends on donor and acceptor labels being close together.

The target of a further test is NAMPT (Homo sapiens, UniProt P43490). Description: TR-FRET Binding Assay of NAMPT with PRPP. The settings on record: with 200 μM PRPP and 2.5 mM ATP; 2 nM NAMPT, 2 nM probe, 16 hours equilibration. In outline: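 NAMPT 2 nM + probe 2 nM + Tb-anti-His Ab 1 nM; PRPP 200 μM, ATP 2.5 mM, DMSO 2%; 16 h equilibration before TR-FRET read.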
Sequence of NAMPT (P43490 whole entry): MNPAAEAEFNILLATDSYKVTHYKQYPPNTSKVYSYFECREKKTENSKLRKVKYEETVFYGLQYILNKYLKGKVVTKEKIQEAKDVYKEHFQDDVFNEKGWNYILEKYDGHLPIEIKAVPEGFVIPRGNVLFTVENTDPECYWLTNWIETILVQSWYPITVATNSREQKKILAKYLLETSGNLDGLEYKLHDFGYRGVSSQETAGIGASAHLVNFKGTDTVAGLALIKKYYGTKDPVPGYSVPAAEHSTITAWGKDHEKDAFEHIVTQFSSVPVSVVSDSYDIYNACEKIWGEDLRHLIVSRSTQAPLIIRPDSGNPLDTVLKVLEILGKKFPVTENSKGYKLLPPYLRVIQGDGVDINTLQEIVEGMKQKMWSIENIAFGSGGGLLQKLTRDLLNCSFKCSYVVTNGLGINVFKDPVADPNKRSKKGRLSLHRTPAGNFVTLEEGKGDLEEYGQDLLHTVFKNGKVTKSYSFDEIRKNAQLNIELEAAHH

Sequence of NAMPT (human, recombinant, C-terminally His-tagged) (P43490 whole entry): as above

A word on the IC50: it is the midpoint of a concentration-inhibition curve. For the compound `CC(C)CC(=O)N1CCC(n2nccc2C(=O)NCc2ccn3ccnc3c2)CC1` [Example 409], the figures for the IC50 (in the test on PC3 cells; in test [1]; on NAMPT) were no less than 10 µM, greater than 10 µM and 0.48 µM, respectively.
In the case of `CC(=O)N1CCC(Oc2ccc(C(=O)NCc3ccn4ccnc4c3)cc2)CC1` [Example 411, 4-[(1-acetylpiperidin-4-yl)oxy]-N-(imidazo[1,2-a]pyridin-7-ylmethyl)benzamide], the IC50 was found to be 4.72 µM with PC3 cells, 1.87 µM in test [1] and 0.000556 µM on NAMPT.
Consider `CC(C)C(=O)N1CCC(Oc2ccc(C(=O)NCc3ccn4ccnc4c3)cc2)CC1` [Example 412, N-(imidazo[1,2-a]pyridin-7-ylmethyl)-4-{[1-(2-methylpropanoyl)piperidin-4-yl]oxy}benzamide], for which the IC50 with PC3 cells turned out to be 0.978 µM; in test [1], 1.25 µM; on NAMPT, 0.000424 µM.
The corresponding values for `CC[C@H](C)C(=O)N1CCC(Oc2ccc(C(=O)NCc3ccn4ccnc4c3)cc2)CC1` [Example 413, N-(imidazo[1,2-a]pyridin-7-ylmethyl)-4-({1-[(2S)-2-methylbutanoyl]piperidin-4-yl}oxy)benzamide] are 0.19 µM, 0.805 µM and 0.000279 µM.
For the compound `O=C(NCc1ccn2ccnc2c1)c1ccc(OC2CCN(C(=O)CC3CC3)CC2)cc1` [Example 414, 4-{[1-(cyclopropylacetyl)piperidin-4-yl]oxy}-N-(imidazo[1,2-a]pyridin-7-ylmethyl)benzamide], the IC50 turned out to be 0.853 µM in the test on PC3 cells, 2.63 µM in test [1] and 0.000307 µM at NAMPT.
Regarding `O=C(NCc1ccn2ccnc2c1)c1ccc(OC2CCN(C(=O)c3ccccc3)CC2)cc1` [Example 415, 4-[(1-benzoylpiperidin-4-yl)oxy]-N-(imidazo[1,2-a]pyridin-7-ylmethyl)benzamide], the IC50 was determined as 0.234 µM in the test with PC3 cells, 1.62 µM in test [1] and 0.000246 µM at NAMPT.
Turning to `CC(C)OCC(=O)N1CCC(Oc2ccc(C(=O)NCc3ccn4ccnc4c3)cc2)CC1` [Example 416, N-(imidazo[1,2-a]pyridin-7-ylmethyl)-4-({1-[(propan-2-yloxy)acetyl]piperidin-4-yl}oxy)benzamide], the IC50 with PC3 cells stood at 0.659 µM; in test [1], 2.5 µM; at NAMPT, 0.000318 µM.
Consider `CC(C)(O)C(=O)N1CCC(Oc2ccc(C(=O)NCc3ccn4ccnc4c3)cc2)CC1` [Example 417, 4-{[1-(2-hydroxy-2-methylpropanoyl)piperidin-4-yl]oxy}-N-(imidazo[1,2-a]pyridin-7-ylmethyl)benzamide], for which the half-maximal inhibitory concentration (IC50) in the test with PC3 cells is 0.867 µM; in test [1] it was 6.84 µM; at NAMPT it was 0.000264 µM.
For the compound `O=C(NCc1ccn2ccnc2c1)c1ccc(OC2CCN(C(=O)[C@H]3CCCO3)CC2)cc1` [Example 418, N-(imidazo[1,2-a]pyridin-7-ylmethyl)-4-({1-[(2R)-tetrahydrofuran-2-ylcarbonyl]piperidin-4-yl}oxy)benzamide], the IC50 in the test on PC3 cells was determined as 0.866 µM; in test [1] it was 4.75 µM; at NAMPT it was 0.000233 µM.
As for `O=C(NCc1ccn2ccnc2c1)c1ccc(OC2CCN(C(=O)[C@@H]3CCCO3)CC2)cc1` [Example 419, N-(imidazo[1,2-a]pyridin-7-ylmethyl)-4-({1-[(2S)-tetrahydrofuran-2-ylcarbonyl]piperidin-4-yl}oxy)benzamide], the IC50 in the test on PC3 cells is 0.365 µM; in test [1] it was 2.43 µM; on NAMPT, 0.000197 µM.
For `O=C(NCc1ccn2ccnc2c1)c1ccc(OC2CCN(C(=O)C3CCOCC3)CC2)cc1` [Example 420, N-(imidazo[1,2-a]pyridin-7-ylmethyl)-4-{[1-(tetrahydro-2H-pyran-4-ylcarbonyl)piperidin-4-yl]oxy}benzamide], the 50% inhibitory concentration (IC50) was found to be 0.147 µM in the test on PC3 cells, 2.71 µM in test [1] and 0.000226 µM at NAMPT.
As to `O=C(NCc1ccn2ccnc2c1)c1ccc(OC2CCN(C(=O)C3COCCO3)CC2)cc1` (stereo not drawn) [Example 421, 4-{[1-(1,4-dioxan-2-ylcarbonyl)piperidin-4-yl]oxy}-N-(imidazo[1,2-a]pyridin-7-ylmethyl)benzamide], the IC50 in the test on PC3 cells amounted to 0.317 µM; in test [1] it was 2.45 µM; on NAMPT, 0.000271 µM.
For `O=C(NCc1ccn2ccnc2c1)c1ccc(OC2CCN(C(=O)CC3CCOCC3)CC2)cc1` [Example 422, N-(imidazo[1,2-a]pyridin-7-ylmethyl)-4-{[1-(tetrahydro-2H-pyran-4-ylacetyl)piperidin-4-yl]oxy}benzamide], the IC50 was found to be 0.109 µM in the test on PC3 cells, 1.72 µM in test [1] and 0.000212 µM at NAMPT.
For `O=C(NCc1ccn2ccnc2c1)c1ccc(OC2CCN(C(=O)CN3CCOCC3)CC2)cc1` [Example 423, N-(imidazo[1,2-a]pyridin-7-ylmethyl)-4-{[1-(morpholin-4-ylacetyl)piperidin-4-yl]oxy}benzamide], the half-inhibitory concentration (IC50) in the test with PC3 cells amounted to 0.187 µM; in test [1], 8.26 µM; at NAMPT, 0.000338 µM.
On to `CC(=O)N1CC(Oc2ccc(NC(=O)NCc3ccn4ccnc4c3)cc2)C1` [Example 424, 1-{4-[(1-acetylazetidin-3-yl)oxy]phenyl}-3-(imidazo[1,2-a]pyridin-7-ylmethyl)urea], for which the results for the IC50 (in the test on PC3 cells; in test [1]; at NAMPT) were 0.521 µM, 0.988 µM and 0.000494 µM, respectively.
Turning to `CC(C)C(=O)N1CC(Oc2ccc(NC(=O)NCc3ccn4ccnc4c3)cc2)C1` [Example 425, 1-(imidazo[1,2-a]pyridin-7-ylmethyl)-3-(4-{[1-(2-methylpropanoyl)azetidin-3-yl]oxy}phenyl)urea], the IC50 in the test on PC3 cells came to 0.069 µM; in test [1] it was 0.153 µM; on NAMPT, 0.000227 µM.
On to `CC[C@H](C)C(=O)N1CC(Oc2ccc(NC(=O)NCc3ccn4ccnc4c3)cc2)C1` [Example 426, 1-(imidazo[1,2-a]pyridin-7-ylmethyl)-3-[4-({1-[(2S)-2-methylbutanoyl]azetidin-3-yl}oxy)phenyl]urea], for which the values for the IC50 (with PC3 cells; in test [1]; at NAMPT) were 0.0064 µM, 0.0256 µM and 0.000169 µM, respectively.
On to `O=C(NCc1ccn2ccnc2c1)Nc1ccc(OC2CN(C(=O)CC3CC3)C2)cc1` [Example 427, 1-(4-{[1-(cyclopropylacetyl)azetidin-3-yl]oxy}phenyl)-3-(imidazo[1,2-a]pyridin-7-ylmethyl)urea], for which the IC50 in the test with PC3 cells came out at 0.0622 µM; in test [1], 0.15 µM; at NAMPT, 0.00027 µM.
As to `O=C(NCc1ccn2ccnc2c1)Nc1ccc(OC2CN(C(=O)c3ccccc3)C2)cc1` [Example 428, 1-{4-[(1-benzoylazetidin-3-yl)oxy]phenyl}-3-(imidazo[1,2-a]pyridin-7-ylmethyl)urea], the IC50 with PC3 cells was 0.0675 µM; in test [1], 0.0871 µM; on NAMPT, 0.000258 µM.
Regarding `CC(C)OCC(=O)N1CC(Oc2ccc(NC(=O)NCc3ccn4ccnc4c3)cc2)C1` [Example 429, 1-(imidazo[1,2-a]pyridin-7-ylmethyl)-3-[4-({1-[(propan-2-yloxy)acetyl]azetidin-3-yl}oxy)phenyl]urea], the figures for the IC50 (with PC3 cells; in test [1]; on NAMPT) were 0.0186 µM, 0.129 µM and 0.000396 µM, respectively.
In the case of `CC(C)(O)C(=O)N1CC(Oc2ccc(NC(=O)NCc3ccn4ccnc4c3)cc2)C1` [Example 430, 1-(4-{[1-(2-hydroxy-2-methylpropanoyl)azetidin-3-yl]oxy}phenyl)-3-(imidazo[1,2-a]pyridin-7-ylmethyl)urea], the values for the IC50 (in the test on PC3 cells; in test [1]; at NAMPT) were 0.0886 µM, 0.292 µM and 0.000264 µM, respectively.
For `O=C(NCc1ccn2ccnc2c1)Nc1ccc(OC2CN(C(=O)[C@H]3CCCO3)C2)cc1` [Example 431, 1-(imidazo[1,2-a]pyridin-7-ylmethyl)-3-[4-({1-[(2R)-tetrahydrofuran-2-ylcarbonyl]azetidin-3-yl}oxy)phenyl]urea], the 50% inhibitory concentration (IC50) in the test with PC3 cells came out at 0.0719 µM; in test [1], 0.301 µM; on NAMPT it was 0.000276 µM.
The corresponding values for `O=C(NCc1ccn2ccnc2c1)Nc1ccc(OC2CN(C(=O)[C@@H]3CCCO3)C2)cc1` [Example 432, 1-(imidazo[1,2-a]pyridin-7-ylmethyl)-3-[4-({1-[(2S)-tetrahydrofuran2-ylcarbonyl]azetidin-3-yl}oxy)phenyl]urea] are 0.0363 µM, 0.304 µM and 0.00033 µM.
Take `O=C(NCc1ccn2ccnc2c1)Nc1ccc(OC2CN(C(=O)C3CCOCC3)C2)cc1` [Example 433, 1-(imidazo[1,2-a]pyridin-7-ylmethyl)-3-(4-{[1-(tetrahydro-2H-pyran-4-ylcarbonyl)azetidin-3-yl]oxy}phenyl)urea]: the IC50 was 0.0644 µM in the test with PC3 cells, 0.2 µM in test [1] and 0.000248 µM on NAMPT.
With `O=C(NCc1ccn2ccnc2c1)Nc1ccc(OC2CN(C(=O)C3COCCO3)C2)cc1` (stereo not drawn) [Example 434, 1-(4-{[1-(1,4-dioxan-2-ylcarbonyl)azetidin-3-yl]oxy}phenyl)-3-(imidazo[1,2-a]pyridin-7-ylmethyl)urea], the IC50 in the test on PC3 cells was determined as 0.00559 µM; in test [1] it was 0.102 µM; on NAMPT it was 0.000169 µM.
